Patent US20060258746A1, “Oral medicament for improvement in going to sleep or waking” (Kyowa Hakko Kogyo Co., Ltd., priority 2005, published 2006)

Assays:
normal subjects = experiment: Test Example 2: double blind parallel group test against tablets without ornithine, going to sleep and waking rated by Visual Analogue Scale (VAS) method; assay type: in vivo, human; settings: 6 tablets of example 1 a day for 3 weeks; 7 subjects per group; 45 to 64 year
Experimental: Six tablets of example 1 (the tablet containing ornithine) or 6 tablets of comparative example 1 (the tablet not containing ornithine) were administered to two groups with 7 subjects out of 14 normal subjects of each male and female between 45 to 64 year a day for 3 weeks.
Before the administration and just after the administration, the improvements in going to sleep and waking of each subject were evaluated using Visual Analogue Scale (VAS) method.
Specifically each end of the segment has a criterion of expression. Referring to FIG. 1, each subject marked somewhere in the line, corresponding to each term of the questionnaires. The distance (mm) from the left end of the line to the marked point was measured and the difference between before and after the test was calculated. The difference by the value before the test was shown in the percentage calculated; and each average value and standard deviation for each group were calculated. Further the average improvement ratio (%) was the value obtained by subtracting the average value of the placebo group from the average value of ornithine group. Further, it was confirmed that there was no difference between two groups before the administration test.
Further the test was carried out under a random assignment and the comparison between the double blind parallel groups was carried out. […]

subjects = experiment: Test Example 1: intake of ornithine tablets, improvement in waking compared with before administration; assay type: in vivo, human

For `NCCC[C@H](N)C(=O)O` [ornithine], the “improvement in going to sleep (VAS, average improvement ratio vs placebo group, FIG. 2)” value (normal subjects) was “improvement in going to sleep were obtained”, the “improvement in the waking process (VAS, average improvement ratio vs placebo group, FIG. 2)” value (normal subjects) was “improvement in the waking process was evident” and the “effect on the waking process (conclusion of test result)” value (subjects; oral intake of ornithine tablets) was “improved the waking process”. For the same compound, the “subjects who showed an improvement in waking” value (subjects; oral, ornithine taken just before going to sleep) was 3 subjects out of the 6 subjects and the “effect of intake just before going to sleep (conclusion of test result)” value (subjects; oral, taken just before going to sleep) was “effective”.
